{"source": "patent US20140235729A1", "about": "“BENZYLAMINE CONTAINING COMPOSITIONS AND METHODS FOR APPETITE SUPPRESSION” (Zija International, Inc., priority 2013, published 2014)", "key": {"[1]": {"details": "'thought to be' / 'believed to be'; cited from earlier work"}, "appetite": {"test_system": "appetite", "test": "appetite suppression after oral consumption by a subject", "assay_type": "in vivo", "details": "consumed orally by a subject; 'results have shown'; listed as Moringine", "method": "Generally speaking, most parts of the Moringa Oleifera tree are edible, with the leaves and seeds often being associated with most of the above-mentioned nutritional and health benefits.\nHowever, the medium lethal dose (LD50) of benzylamine in subjects is understood to be about 600 milligrams (mg) per kilogram (kg) (i.e., 600 mg/kg). […] However, in accordance with the novel appetite suppression compositions and methods described herein, an effective amount of benzylamine that is far below the LD50 can be orally administered to adult humans for appetite suppression."}, "[2]": {"details": "in subjects; 'understood to be'; cited from earlier work"}}}
{"smiles": "NCc1ccccc1", "note": "[benzylamine]", "values": [{"measurement": "in vivo half-life", "setting": "[1]", "value": "15 to 30", "unit": "min"}, {"measurement": "appetite suppression", "setting": "appetite", "value": "can suppress a subject's appetite"}, {"measurement": "medium lethal dose (LD50)", "setting": "[2]", "value": "about 600 mg/kg"}]}
